Reference: patent US12319679B2, “Morpholinyl, piperazinyl, oxazepanyl and diazepanyl O-glycoprotein-2-acetamido-2-deoxy-3-d-glucopyranosidase inhibitors” (BIOGEN MA INC., priority 2018, dated 2025)
pIC50: −log10 of the molar value.

The molecules below were run against T1, Recombinant full length human OGA enzyme (Homo sapiens, UniProt O60502) (assay: OGA Enzyme Inhibition Biochemical Assay). Settings: 1 nM OGA, 100 μM 4-MUGlcNAc (Km), pH 6.4, 90 minutes at room temperature; 10-point dose-response starting from 20 μM.
T1 construct: Recombinant full length human OGA enzyme was purchased from Origene; purchased Origene
T1 sequence (O60502 1-916): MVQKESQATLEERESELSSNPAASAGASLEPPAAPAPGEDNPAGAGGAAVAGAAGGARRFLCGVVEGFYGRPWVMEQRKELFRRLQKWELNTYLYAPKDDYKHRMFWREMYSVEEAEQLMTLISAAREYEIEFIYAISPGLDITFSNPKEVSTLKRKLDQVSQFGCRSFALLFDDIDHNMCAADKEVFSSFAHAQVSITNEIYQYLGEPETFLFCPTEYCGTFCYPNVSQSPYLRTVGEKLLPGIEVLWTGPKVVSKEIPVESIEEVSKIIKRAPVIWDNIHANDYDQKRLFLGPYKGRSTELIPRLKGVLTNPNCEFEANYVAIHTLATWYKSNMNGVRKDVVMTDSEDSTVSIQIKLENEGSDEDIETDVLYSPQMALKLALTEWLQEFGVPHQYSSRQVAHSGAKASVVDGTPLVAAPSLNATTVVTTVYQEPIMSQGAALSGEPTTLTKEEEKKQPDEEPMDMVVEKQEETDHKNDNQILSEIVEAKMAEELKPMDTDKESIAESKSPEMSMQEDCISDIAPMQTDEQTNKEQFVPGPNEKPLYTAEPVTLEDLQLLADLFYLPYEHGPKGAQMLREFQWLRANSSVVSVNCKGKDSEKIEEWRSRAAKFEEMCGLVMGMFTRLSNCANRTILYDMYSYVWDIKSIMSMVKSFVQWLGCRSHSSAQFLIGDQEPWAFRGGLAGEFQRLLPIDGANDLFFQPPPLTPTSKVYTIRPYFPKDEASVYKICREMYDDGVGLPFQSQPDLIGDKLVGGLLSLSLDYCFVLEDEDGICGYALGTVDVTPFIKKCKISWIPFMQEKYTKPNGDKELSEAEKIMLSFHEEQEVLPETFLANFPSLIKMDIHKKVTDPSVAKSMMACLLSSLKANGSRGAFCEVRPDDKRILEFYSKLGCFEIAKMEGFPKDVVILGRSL
Experimental: OGA Enzyme Inhibition Biochemical Assay
Recombinant full length human OGA enzyme was purchased from Origene. 4-MUGlCNAc substrate was purchased from Sigma. All other reagents were purchased from Sigma or Fisher. Assay buffer consists of the McIlvaine buffer system, pH 6.4 (0.2M Na2HPO4 mixed with 0.1M citric acid) and 0.01% BSA. Reactions consist of 1 nM OGA, 100 μM 4-MUGlcNAc (Km), and compound in a final volume of 10 μl. Reactions were incubated for 90 minutes at room temperature and quenched with 40 μl of 3M glycine, pH 10 and read on a Perkin Elmer Envision plate reader (Ex: 355 nm/Em: 460 nm). Compounds were tested with a 10-point dose-response starting from 20 μM with a 4-fold dilution. Data was fit using GraphPad Prism using a 4-paramter fit with variable slope.

SMILES	pIC50
CC(=O)Nc1ncc(CN2CCOCC(Cc3cc(C)nc(C)c3)C2)s1 (single isomer, unassigned) [Example 1-43 Peak 1]	7.72
COc1nccc(CC2CN(Cc3cnc(NC(C)=O)s3)CCN2)c1F (single isomer, unassigned) [Example 4-18 Peak 1]	4.85
COc1cc(CC2CN(Cc3cnc(NC(C)=O)s3)CCN2)ccn1 (single isomer, unassigned) [Example 2-22 Peak 1]	4.74
CC(=O)Nc1ncc(CN2CCOCC(Cc3ncc(F)cn3)C2)s1 (single isomer, unassigned) [Example 1-45 Peak 2]	7.85
COc1cc(CC2COCCN(Cc3cnc(NC(C)=O)s3)C2)ccn1 (single isomer, unassigned) [Example 1-47 Peak 1]	6.00
CC(=O)Nc1ncc(CN2CCOCC(Cc3cc(C)nc(C)c3)C2)s1 (single isomer, unassigned) [Example 1-43 Peak 2]	7.42
COc1cc(CC2CN(Cc3cnc(NC(C)=O)s3)CCN2)ccn1 (single isomer, unassigned) [Example 2-22 Peak 2]	6.07
COc1cc(CC2CN(Cc3cnc(NC(C)=O)s3)CCN2)ccc1F (single isomer, unassigned) [Example 4-6 Peak 2]	5.39
COc1cc(CC2CN(Cc3cnc(NC(C)=O)s3)CCCO2)ccn1 (single isomer, unassigned) [Example 1-41 Peak 2]	6.57
CC(=O)Nc1ncc(C(C)N2CCO[C@H](Cc3ncc(F)cn3)C2)s1 (single isomer, unassigned) [Example 1-23 Peak 2]	6.44
CC(=O)Nc1ncc(CN2CCOCC(Cc3ncc(F)cn3)C2)s1 (single isomer, unassigned) [Example 1-45 Peak 1]	5.80
COc1cc(CC2CN(Cc3cnc(NC(C)=O)s3)CCN2C)ccn1 (single isomer, unassigned) [Example 4-12 Peak 1]	6.02
CC(=O)Nc1ncc(CN2CCNC(Cc3ccnc(C)c3)C2)s1 (single isomer, unassigned) [Example 4-8 Peak 2]	6.31
COc1cc(CC2COCCN(Cc3cnc(NC(C)=O)s3)C2)ccn1 (single isomer, unassigned) [Example 1-47 Peak 2]	7.77

More lines, now with the values ahead:

pIC50	SMILES
< 4.70	COc1cc(CC2CN(Cc3cnc(NC(C)=O)s3)CCCN2)ccn1 (centres unmarked) [Example 2-25, N-(5-((3-((2-methoxypyridin-4-yl)methyl)-1,4-diazepan-1-yl)methyl)thiazol-2-yl)acetamide]
4.92	CC(=O)Nc1ncc(CN2CCCNC(Cc3cc(C)nc(C)c3)C2)s1 (centres unmarked) [Example 2-28, N-(5-((3-((2,6-dimethylpyridin-4-yl)methyl)-1,4-diazepan-1-yl)methyl)thiazol-2-yl)acetamide]
7.39	CC(=O)Nc1ncc(CN2C[C@@H](Cc3cc(C)nc(C)n3)N(C)C[C@@H]2C)s1 [Example 2-17]
6.77	CC(=O)Nc1nc(F)c(CN2C[C@@H](Cc3ccc(C)nc3)OC[C@@H]2C)s1 [Example 1-49, N-(4-fluoro-5-(((2R,5S)-5-methyl-2-((6-methylpyridin-3 yl)methyl)morpholino)methyl)thiazol-2-yl)acetamide]
8.31	COc1cc(C[C@@H]2CN(Cc3cnc(NC(C)=O)s3)[C@@H](C)CN2C)ccn1 [Example 2-18]
7.21	COc1nccc(C[C@@H]2CN(Cc3cnc(NC(C)=O)s3)CCO2)c1C [Example 1-5, (R)—N-(5-((2-((2-methoxy-3-methylpyridin-4-yl)methyl)morpholino)methyl)thiazol-2-yl)acetamide]
< 4.70	CC(=O)Nc1ncc(CN2CCN(C)[C@H](Cc3ccnc(C)c3)C2)s1 [Example 4-9, (R)—N-(5-((4-methyl-3-((2-methylpyridin-4-yl)methyl)piperazin-1-yl)methyl)thiazol-2-yl)acetamide]
6.17	CC(=O)Nc1ncc(CN2C[C@@H](Cc3ncc(F)cn3)O[C@@H](C)C2)s1 (racemic) [Example 1-34, N-(5-(((cis)-2-((5-fluoropyrimidin-2-yl)methyl)-6-methylmorpholino)methyl)thiazol-2-yl)acetamide]
7.77	CC(=O)Nc1ncc(CN2C[C@@H](COc3cc(C)nc(C)c3)OC[C@@H]2C)s1 [Example 3-4, N-(5-(((2S,5S)-2-(((2,6-dimethylpyridin-4-yl)oxy)methyl)-5 methylmorpholino)methyl)thiazol-2-yl)acetamide]
6.85	CC(=O)Nc1nc(F)c(CN2CCO[C@H](Cc3ccc(C)nc3)C2)s1 [Example 1-48, (R)—N-(4-fluoro-5-((2-((6-methylpyridin-3-yl)methyl)morpholino)methyl)thiazol-2-yl)acetamide]
7.00	COc1cc(CC2CN(Cc3cnc(NC(C)=O)s3)CCCO2)ccn1 (racemic) [Example 1-40, N-(5-((2-((2-methoxypyridin-4-yl)methyl)-1,4-oxazepan-4-yl)methyl)thiazol-2-yl)acetamide]
7.37	COc1cc(C[C@@H]2CN(Cc3cnc(NC(C)=O)s3)CCO2)ccn1 [Example 1-3, (R)—N-(5-((2-((2-methoxypyridin-4-yl)methyl)morpholino)methyl)thiazol-2-yl)acetamide]
7.80	CC(=O)Nc1ncc(CN2CCO[C@H](Cc3ncc(F)cn3)C2)s1 [Example 1-1, (R)—N-(5-((2-((5-fluoropyrimidin-2-yl)methyl)morpholino)methyl)thiazol-2-yl)acetamide]
7.77	CC(=O)Nc1ncc(CN2C[C@@H](Cc3ncc(F)cn3)N(C)C[C@@H]2C)s1 [Example 2-6, N-(5-(((2S,5R)-5-((5-fluoropyrimidin-2-yl)methyl)-2,4-dimethylpiperazin-1-yl)methyl)thiazol-2-yl)acetamide]
4.96	COc1cc(C[C@H]2CN(Cc3cnc(NC(C)=O)s3)CCO2)ccn1 [Example 1-4, (S)—N-(5-((2-((2-methoxypyridin-4-yl)methyl)morpholino)methyl)thiazol-2-yl)acetamide]
5.12	CC(=O)Nc1ncc(CN2C[C@@H](Cc3ccnc(C)c3)N(C(C)=O)C[C@@H]2C)s1 [Example 2-4, N-(5-(((2S,5R)-4-acetyl-2-methyl-5-((2-methylpyridin-4-yl)methyl)piperazin-1-yl)methyl)thiazol-2-yl)acetamide]
6.57	CC(=O)Nc1ncc(CN2CCO[C@H](Cc3ccnc(OC(C)C)c3)C2)s1 [Example 1-12, (R)—N-(5-((2-((2-isopropoxypyridin-4-yl)methyl)morpholino)methyl)thiazol-2-yl)acetamide]
5.70	CC(=O)Nc1ncc(CN2CCN(C)[C@@H](Cc3ccc(C)nc3)C2)s1 [Example 4-16, (S)—N-(5-((4-methyl-3-((6-methylpyridin-3-yl)methyl)piperazin-1-yl)methyl)thiazol-2-yl)acetamide]
4.92	CC(=O)Nc1ncc(CN2CCCN(C)C(Cc3ncc(F)cn3)C2)s1 (centres unmarked) [Example 2-24, N-(5-((3-((5-fluoropyrimidin-2-yl)methyl)-4-methyl-1,4-diazepan-1-yl)methyl)thiazol-2-yl)acetamide]
4.96	CC(=O)Nc1ncc(CN2C[C@@H](COc3cc(C)nc(C)c3)N(C(C)=O)C[C@@H]2C)s1 [Example 3-3]
6.82	CC(=O)Nc1ncc(CN2C[C@H](Cc3ncc(F)cn3)OC[C@@H]2C)s1 [Example 1-28, N-(5-(((2S,5S)-2-((5-fluoropyrimidin-2-yl)methyl)-5-methylmorpholino)methyl)thiazol-2-yl)acetamide]
